Laboratory results: patent publication US9073876B2, “Flap modulators” (JANSSEN PHARMACEUTICA NV, priority 2013, dated 2015)

Columns and labels:
human FLAP = human FLAP (Homo sapiens (Human), UniProt P20292); experiment: FLAP binding assay (HTRF); conditions: human FLAP-containing membranes, HTRF format; average of two assay plates, duplicates; read-out: FLAP Binding wild type HTRF Ki
Outline: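 Binding of compounds to FLAP read out as HTRF ratio. Values are the mean of two assay plates, each sample run in duplicate per plate.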

[1] = test system: leukotriene pathway in human whole blood (LTB4 levels); experiment: Human whole blood assay (LTB4); assay type: cell-based; conditions: human whole blood diluted 1:1 in RPMI, stimulated with calcium ionophore A23187; single replicate
Outline: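 Blood (heparin) diluted 1:1 RPMI; compound pre-incubation 15 min, 37° Celsius; A23187 7 μg/mL, 30 min, 37° Celsius; plasma LTB4 by commercial kit. IC50 via 4-parameter equation.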

Sequence of human FLAP (P20292 whole entry): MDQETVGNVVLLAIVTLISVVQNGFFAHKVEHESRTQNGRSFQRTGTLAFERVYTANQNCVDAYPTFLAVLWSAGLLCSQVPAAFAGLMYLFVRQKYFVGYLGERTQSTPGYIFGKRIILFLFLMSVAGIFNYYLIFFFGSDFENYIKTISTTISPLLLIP

Ki (human FLAP)	IC50 [1]	Compound
0.0029 µM	0.168 µM	Fc1c(-c2cnc3c(c2)OCCN3)ccc(C2CCC2)c1Oc1cccc(C(F)(F)F)n1 [Example 194, 7-(4-Cyclobutyl-2-fluoro-3-{[6-(trifluoromethyl)pyridin-2-yl]oxy}phenyl)-3,4-dihydro-2H-pyrido[3,2-b][1,4]oxazine]
0.0022 µM	0.446 µM	O=C(O)Cc1ccc(COc2c(C3CCC3)ccc(-c3cnc4c(c3)OCCN4)c2F)cc1 [Example 195, (4-{[6-cyclobutyl-3-(3,4-dihydro-2H-pyrido[3,2-b][1,4]oxazin-7-yl)-2-fluorophenoxy]methyl}phenyl)acetic acid]
0.0041 µM	0.871 µM	O=C(O)c1ccc(COc2c(C3CCC3)ccc(-c3cnc4c(c3)OCCN4)c2F)cc1 [Example 196, 4-{[6-Cyclobutyl-3-(3,4-dihydro-2H-pyrido[3,2-b][1,4]oxazin-7-yl)-2-fluorophenoxy]methyl}benzoic acid]
0.0242 µM	1.06 µM	Oc1c(C2CCC2)ccc(-c2cnc3c(c2)CCN3)c1F [Example 199, 6-Cyclobutyl-3-(2,3-dihydro-1H-pyrrolo[2,3-b]pyridin-5-yl)-2-fluorophenol]
0.0085 µM	0.0518 µM	CC(C)(C)c1ccc(-c2cnc(N)cn2)c(F)c1Oc1ncccn1 [Example 201, 5-[4-tert-Butyl-2-fluoro-3-(pyrimidin-2-yloxy)phenyl]pyrazin-2-amine]
0.0069 µM	0.0308 µM	CC(C)(C)c1ccc(-c2cnc(N)cn2)c(F)c1Oc1nccc(N)n1 [Example 203, 2-[3-(5-Aminopyrazin-2-yl)-6-tert-butyl-2-fluorophenoxy]pyrimidin-4-amine]
0.0815 µM	0.171 µM	COc1cc(Oc2c(C(C)(C)C)ccc(-c3cnc(N)cn3)c2F)ncn1 [Example 204, 5-{4-tert-Butyl-2-fluoro-3-[(6-methoxypyrimidin-4-yl)oxy]phenyl}pyrazin-2-amine]
0.0402 µM	0.15 µM	COc1c(C(C)(C)C)ccc(-c2cnc(N)cn2)c1F [Example 205, 5-(4-tert-Butyl-2-fluoro-3-methoxyphenyl)pyrazin-2-amine]
0.0474 µM	0.0726 µM	CC(C)(C)c1ccc(-c2cnc(N)nc2)c(F)c1Oc1ncccn1 [Example 207, 5-[4-tert-Butyl-2-fluoro-3-(pyrimidin-2-yloxy)phenyl]pyrimidin-2-amine]
0.0465 µM	0.215 µM	CC(C)(C)c1ccc(-c2cnc(N)nc2)c(F)c1Oc1cc(N)ncn1 [Example 208, 5-{3-[(6-Aminopyrimidin-4-yl)oxy]-4-tert-butyl-2-fluorophenyl}pyrimidin-2-amine]
0.0233 µM	0.0511 µM	CC(C)(C)c1ccc(-c2cnc(N)nc2)c(F)c1Oc1nccc(N)n1 [Example 209, 5-{3-[(4-Aminopyrimidin-2-yl)oxy]-4-tert-butyl-2-fluorophenyl}pyrimidin-2-amine]
0.064 µM	1.09 µM	Nc1cnc(-c2ccc(C3CCCC3)c(OCc3ccccc3)c2F)cn1 [Example 212, 5-[3-(Benzyloxy)-4-cyclopentyl-2-fluorophenyl]pyrazin-2-amine]
0.0921 µM	1.01 µM	CC(C)Oc1c(C2CCCC2)ccc(-c2cnc(N)cn2)c1F [Example 213, 5-[4-Cyclopentyl-2-fluoro-3-(1-methylethoxy)phenyl]pyrazin-2-amine]
0.0308 µM	1.09 µM	Fc1c(-c2cnc3[nH]ccc3n2)ccc(C2CCCC2)c1OCc1ccccc1 [Example 214, 2-[3-(Benzyloxy)-4-cyclopentyl-2-fluorophenyl]-5H-pyrrolo[2,3-b]pyrazine]
0.0773 µM	> 5 µM	COc1c(C2CCC2)ccc(-c2cnc(N)c(C#N)n2)c1F [Example 218, 3-amino-6-(4-cyclobutyl-2-fluoro-3-methoxyphenyl)-pyrazine-2-carbonitrile]
0.0218 µM	1.12 µM	Oc1c(C2CCC2)ccc(-c2cnc3[nH]ccc3c2)c1F [Example 220, 6-cyclobutyl-2-fluoro-3-(1H-pyrrolo[2,3-b]pyridin-5-yl)phenol]
0.0232 µM	0.287 µM	Nc1cnc(-c2ccc(C3CCC3)c(Oc3ccnc(Oc4c(C5CCC5)ccc(-c5cnc(N)cn5)c4F)n3)c2F)cn1 [Example 224, 5,5′-((pyrimidine-2,4-diylbis(oxy))bis(4-cyclobutyl-2-fluoro-3,1-phenylene))bis(pyrazin-2-amine)]
0.0025 µM	0.0684 µM	Fc1c(-c2cnc3c(c2)OCCN3)ccc(C2CCC2)c1Oc1ncccn1 [Example 225, 7-(4-cyclobutyl-2-fluoro-3-(pyrimidin-2-yloxy)phenyl)-3,4-dihydro-2H-pyrido[3,2-b][1,4]oxazine]

Ki (human FLAP)	IC50 [1]	Compound
0.0014 µM	0.0901 µM	Nc1ccnc(Oc2c(C3CCC3)ccc(-c3cnc4c(c3)OCCN4)c2F)n1 [Example 226, 2-(6-cyclobutyl-3-(3,4-dihydro-2H-pyrido[3,2-b][1,4]oxazin-7-yl)-2-fluorophenoxy)pyrimidin-4-amine]
0.0085 µM	0.332 µM	COc1cc(Oc2c(C3CCC3)ccc(-c3cnc4c(c3)OCCN4)c2F)ncn1 [Example 227, 7-(4-cyclobutyl-2-fluoro-3-((6-methoxypyrimidin-4-yl)oxy)phenyl)-3,4-dihydro-2H-pyrido[3,2-b][1,4]oxazine]
0.0077 µM	0.408 µM	COc1cc(Oc2c(C3CCC3)ccc(-c3cnc4[nH]ccc4n3)c2F)ncn1 [Example 229, 2-(4-cyclobutyl-2-fluoro-3-((6-methoxypyrimidin-4-yl)oxy)phenyl)-5H-pyrrolo[2,3-b]pyrazine]
0.0025 µM	0.238 µM	Fc1c(-c2cnc3[nH]ccc3n2)ccc(C2CCC2)c1Oc1ncccn1 [Example 230, 2-(4-cyclobutyl-2-fluoro-3-(pyrimidin-2-yloxy)phenyl)-5H-pyrrolo[2,3-b]pyrazine]
1.3 µM	> 10 µM	N#Cc1nccc(Oc2c(C3CCC3)ccc(-c3cnc(N)cn3)c2F)n1 [Example 234, 4-(3-(5-Aminopyrazin-2-yl)-6-cyclobutyl-2-fluorophenoxy)pyrimidine-2-carbonitrile]
0.0033 µM	0.113 µM	Cc1nc(Oc2c(C3CCC3)ccc(-c3cnc(N)cn3)c2F)cc(N(C)C)n1 [Example 235, 6-(3-(5-Aminopyrazin-2-yl)-6-cyclobutyl-2-fluorophenoxy)-N,N,2-trimethylpyrimidin-4-amine]
0.0022 µM	0.0371 µM	Cc1cc(Oc2c(C3CCC3)ccc(-c3cnc(N)cn3)c2F)nc(N(C)C)n1 [Example 236, 4-(3-(5-Aminopyrazin-2-yl)-6-cyclobutyl-2-fluorophenoxy)-N,N,6-trimethylpyrimidin-2-amine]
0.0033 µM	0.0847 µM	CN(C)c1cc(Oc2c(C3CCC3)ccc(-c3cnc(N)cn3)c2F)ncn1 [Example 237, 6-(3-(5-Aminopyrazin-2-yl)-6-cyclobutyl-2-fluorophenoxy)-N,N-dimethylpyrimidin-4-amine]
0.155 µM	0.571 µM	CCOC(=O)c1c(C(F)(F)F)nn(C)c1Oc1c(C2CCC2)ccc(-c2cnc(N)cn2)c1F [Example 238, Ethyl 5-(3-(5-aminopyrazin-2-yl)-6-cyclobutyl-2-fluorophenoxy)-1-methyl-3-(trifluoromethyl)-1H-pyrazole-4-carboxylate]
0.0083 µM	0.197 µM	CS(=O)(=O)c1ccc(Oc2c(C3CCC3)ccc(-c3cnc(N)cn3)c2F)nc1 [Example 239, 5-(4-cyclobutyl-2-fluoro-3-((5-(methylsulfonyl)pyridin-2-yl)oxy)phenyl)pyrazin-2-amine]
0.0236 µM	0.104 µM	CC(C)(C)c1cc(Oc2c(C3CCC3)ccc(-c3cnc(N)cn3)c2F)nc(N)n1 [Example 240, 4-(3-(5-aminopyrazin-2-yl)-6-cyclobutyl-2-fluorophenoxy)-6-(tert-butyl)pyrimidin-2-amine]
0.0012 µM	0.0207 µM	Nc1cnc(-c2ccc(C3CCC3)c(Oc3nccc(N4CCC5(CC4)OCCCO5)n3)c2F)cn1 [Example 241, 5-(3-((4-(1,5-dioxa-9-azaspiro[5.5]undecan-9-yl)pyrimidin-2-yl)oxy)-4-cyclobutyl-2-fluorophenyl)pyrazin-2-amine]
0.0036 µM	0.03 µM	CC(C)Cc1cc(Oc2c(C3CCC3)ccc(-c3cnc(N)cn3)c2F)nc(N)n1 [Example 242, 4-(3-(5-aminopyrazin-2-yl)-6-cyclobutyl-2-fluorophenoxy)-6-isobutylpyrimidin-2-amine]
0.236 µM	0.859 µM	CS(=O)(=O)NCCOc1c(C2CCC2)ccc(-c2cnc(N)cn2)c1F [Example 243, N-(2-(3-(5-Aminopyrazin-2-yl)-6-cyclobutyl-2-fluorophenoxy)-ethyl)-methane-sulfonamide]
0.462 µM	1.82 µM	Nc1cnc(-c2ccc(C3CCC3)c(OCCN3CCOCC3)c2F)cn1 [Example 244, 5-(4-Cyclobutyl-2-fluoro-3-(2-morpholinoethoxy)phenyl)pyrazin-2-amine]
0.0622 µM	2.8 µM	CCOC(=O)CCCOc1c(C2CCC2)ccc(-c2cnc(N)cn2)c1F [Example 245, Ethyl 4-(3-(5-aminopyrazin-2-yl)-6-cyclobutyl-2-fluorophenoxy)butanoate]
0.0986 µM	1.59 µM	CC(C)(C)OC(=O)N1CC(COc2c(C3CCC3)ccc(-c3cnc(N)cn3)c2F)C1 [Example 246, tert-butyl-3-((3-(5-aminopyrazin-2-yl)-6-cyclobutyl-2-fluorophenoxy)-methyl)azetidine-1-carboxylate]

Compound	Ki (human FLAP)	IC50 [1]
CC(C)(C)c1ccc(-c2cnc(N)cn2)c(F)c1O[Si](C)(C)C(C)(C)C [Example 200, 5-(4-tert-Butyl-3-{[tert-butyl(dimethyl)silyl]oxy}-2-fluorophenyl)pyrazin-2-amine]	0.155 µM	1.36 µM
